Target: T1, D. discoideum class I RNR (NrdA + NrdB) (Dictyostelium discoideum, UniProt Q54Q71)
T1 sequence (Q54Q71 1-870): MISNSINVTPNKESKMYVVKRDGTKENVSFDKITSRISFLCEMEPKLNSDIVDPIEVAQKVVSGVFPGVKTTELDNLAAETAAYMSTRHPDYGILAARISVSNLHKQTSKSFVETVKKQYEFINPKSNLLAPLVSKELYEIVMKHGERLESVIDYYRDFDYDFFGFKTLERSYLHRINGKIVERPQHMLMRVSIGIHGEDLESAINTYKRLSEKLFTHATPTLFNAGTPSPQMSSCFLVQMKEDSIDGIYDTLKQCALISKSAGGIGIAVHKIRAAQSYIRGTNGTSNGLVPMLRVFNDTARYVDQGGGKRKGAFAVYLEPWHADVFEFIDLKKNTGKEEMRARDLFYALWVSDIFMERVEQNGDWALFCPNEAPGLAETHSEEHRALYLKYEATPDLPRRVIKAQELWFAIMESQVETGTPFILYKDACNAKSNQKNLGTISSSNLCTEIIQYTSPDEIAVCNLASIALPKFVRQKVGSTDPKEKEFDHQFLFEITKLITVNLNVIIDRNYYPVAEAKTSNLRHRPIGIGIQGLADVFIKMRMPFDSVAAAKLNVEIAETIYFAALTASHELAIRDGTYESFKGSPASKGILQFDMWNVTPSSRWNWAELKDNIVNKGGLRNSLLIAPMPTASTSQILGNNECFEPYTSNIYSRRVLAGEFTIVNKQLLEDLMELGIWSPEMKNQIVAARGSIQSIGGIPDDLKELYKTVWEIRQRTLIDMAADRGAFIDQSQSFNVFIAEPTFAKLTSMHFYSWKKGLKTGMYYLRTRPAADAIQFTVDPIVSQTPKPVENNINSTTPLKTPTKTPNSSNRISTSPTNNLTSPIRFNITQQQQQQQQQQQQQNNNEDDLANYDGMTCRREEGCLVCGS
T1 sequence (P42521 1-338 partner): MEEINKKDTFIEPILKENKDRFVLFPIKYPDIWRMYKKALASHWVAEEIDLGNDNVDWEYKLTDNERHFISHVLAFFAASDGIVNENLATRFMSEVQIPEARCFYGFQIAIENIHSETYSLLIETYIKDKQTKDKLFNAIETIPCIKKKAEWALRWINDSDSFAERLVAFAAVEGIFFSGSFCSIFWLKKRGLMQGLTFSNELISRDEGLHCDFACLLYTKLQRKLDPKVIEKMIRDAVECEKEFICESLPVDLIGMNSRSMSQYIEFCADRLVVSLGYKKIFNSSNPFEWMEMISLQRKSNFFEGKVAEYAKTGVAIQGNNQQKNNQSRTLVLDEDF
Assay: radiolabelled GDP reduction assay
Format: biochemical
Conditions: dTTP as effector; 0.7 mM [14C]GDP; labelled compound; pH 7.5, 25 °C

In the case of `Nc1nc2c(ncn2[C@@H]2O[C@H](COP(=O)(O)OP(=O)(O)O)[C@@H](O)[C@H]2O)c(=O)[nH]1` [GDP], the “radiolabelled GDP reduction assay” value is reported as “characterized in vitro with CDP or GDP as substrate”.

From PMC3605638 (The Journal of Biological Chemistry, 2013)
